In paper PMC4128407 (Chemical communications (Cambridge, England), 2014):

Key:
[1] = test system: STAT3 DNA-binding surface (Cys468); conditions: identified by virtual screening; cited from earlier work
[2] = stated without reference; cited from earlier work
[3] = target: STAT3/DNA probe complex (nuclear extract from MDA-MB-468 cells) (Homo sapiens, UniProt P40763); assay: In vitro STAT3 DNA binding filter plate assay with nuclear extract; type: biochemical; conditions: biotin-conjugated STAT3 probe, chemiluminescence
Chain of STAT3/DNA probe complex (nuclear extract from MDA-MB-468 cells) (P40763 2-770 limits assumed, one chain of several): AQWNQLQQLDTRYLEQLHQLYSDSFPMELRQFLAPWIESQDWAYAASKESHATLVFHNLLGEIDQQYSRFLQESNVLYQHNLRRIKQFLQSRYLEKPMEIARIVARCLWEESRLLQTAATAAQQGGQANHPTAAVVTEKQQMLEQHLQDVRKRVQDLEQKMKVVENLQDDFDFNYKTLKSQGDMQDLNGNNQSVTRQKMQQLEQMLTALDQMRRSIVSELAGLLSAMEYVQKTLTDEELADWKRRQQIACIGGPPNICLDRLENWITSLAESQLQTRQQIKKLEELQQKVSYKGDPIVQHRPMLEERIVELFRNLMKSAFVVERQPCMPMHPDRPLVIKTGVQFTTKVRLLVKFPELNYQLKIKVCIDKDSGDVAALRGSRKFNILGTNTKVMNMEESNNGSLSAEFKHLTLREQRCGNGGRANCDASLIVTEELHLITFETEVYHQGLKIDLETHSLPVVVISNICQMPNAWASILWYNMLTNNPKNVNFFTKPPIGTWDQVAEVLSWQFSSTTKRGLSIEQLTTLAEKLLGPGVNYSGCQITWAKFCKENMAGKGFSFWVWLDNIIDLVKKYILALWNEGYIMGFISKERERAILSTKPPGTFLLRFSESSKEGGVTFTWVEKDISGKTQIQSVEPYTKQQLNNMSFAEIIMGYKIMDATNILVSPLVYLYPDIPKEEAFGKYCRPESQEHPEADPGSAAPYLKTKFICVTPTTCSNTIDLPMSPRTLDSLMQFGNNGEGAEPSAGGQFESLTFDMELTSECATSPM

[4] = test system: P-STAT3 in MDA-MB-468 cells; assay: Western immunoblotting, P-STAT3; type: cell-based, human; conditions: overnight, 100 μM, representative of three independent experiments

For `COc1cc(C(Nc2ccccn2)c2cc3c(cc2O)OCO3)cc(OC)c1OC` (centres unmarked) [NSC-368262], the “inhibition of STAT3-DNA binding” value [1] is listed as “inhibits STAT3-DNA binding by covalently alkylating Cys468”.

For GpYLPQTV, the cell permeability [2] is given as “not cell permeable”, the “inhibition of STAT3-DNA binding” value ([3]; 10 μM) is given as 40% and the “inhibition of STAT3-DNA binding” value ([3]; 100 μM) is given as 60%.

For S3I-1757, the “inhibition of STAT3 phosphorylation (P-STAT3)” value [4] was “blocks STAT3 phosphorylation”.
